# Literature values as cited in US20230270735A1, “TOPICAL FORMULATION” (INCANTHERA (R&D) LTD, priority 2020, published 2023).
# Read-outs that look alike come from different tables or passages of the source.
# Columns and labels:
# [1] = not given; remark: listed apart in the source
# [2] = system: actinic keratoses (AK); settings: 4 months
# [3] = system: nonmelanoma skin cancers
# [4] = target: PARP-1 (Homo sapiens, UniProt P09874); settings: at a concentration of 50 μmol L^−1, in vitro
# Sequence of PARP-1 (P09874 whole entry, species assumed): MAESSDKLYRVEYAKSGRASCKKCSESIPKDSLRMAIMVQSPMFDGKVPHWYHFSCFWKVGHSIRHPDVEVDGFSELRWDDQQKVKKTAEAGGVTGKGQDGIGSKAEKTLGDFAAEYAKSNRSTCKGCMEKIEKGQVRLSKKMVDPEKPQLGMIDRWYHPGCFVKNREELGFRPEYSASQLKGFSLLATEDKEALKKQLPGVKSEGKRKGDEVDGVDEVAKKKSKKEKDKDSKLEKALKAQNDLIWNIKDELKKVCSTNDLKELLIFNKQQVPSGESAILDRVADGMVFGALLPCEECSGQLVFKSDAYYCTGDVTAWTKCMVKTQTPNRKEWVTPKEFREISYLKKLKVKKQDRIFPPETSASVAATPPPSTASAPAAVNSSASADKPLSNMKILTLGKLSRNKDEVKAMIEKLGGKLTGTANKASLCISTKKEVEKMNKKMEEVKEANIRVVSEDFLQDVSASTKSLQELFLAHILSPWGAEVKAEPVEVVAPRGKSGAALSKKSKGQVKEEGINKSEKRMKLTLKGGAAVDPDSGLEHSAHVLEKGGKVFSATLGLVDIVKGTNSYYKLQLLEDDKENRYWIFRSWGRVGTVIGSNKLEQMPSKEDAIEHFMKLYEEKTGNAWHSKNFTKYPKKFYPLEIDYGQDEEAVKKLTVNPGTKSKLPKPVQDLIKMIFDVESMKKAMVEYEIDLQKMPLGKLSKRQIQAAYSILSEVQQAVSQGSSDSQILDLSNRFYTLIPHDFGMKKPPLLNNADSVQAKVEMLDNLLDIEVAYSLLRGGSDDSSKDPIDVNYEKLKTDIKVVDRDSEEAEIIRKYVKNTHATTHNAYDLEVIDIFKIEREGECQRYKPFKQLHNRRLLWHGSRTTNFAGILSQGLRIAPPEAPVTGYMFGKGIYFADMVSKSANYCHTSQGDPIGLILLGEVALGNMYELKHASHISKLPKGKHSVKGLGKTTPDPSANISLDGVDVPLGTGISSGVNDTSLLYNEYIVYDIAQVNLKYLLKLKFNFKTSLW
smiles,measurement,setting,value
"NC(=O)c1cccnc1 [NAM, pyridine-3-carboxamide]",Log P (octanol/water),,−0.4
same,range of peak plasma concentrations,"[1]; 1 g (~0.5 g/M^2) oral dose, healthy volunteers",81 to 158 µmol/L
same,peak plasma concentrations,"[1]; oral 500 mg, extrapolated by Malesu et al. (22) from Stratford data",~80 µmol/L
same,reduction in AK versus baseline,"[2]; study 1, oral 500 mg twice daily",35%
same,reduction in AK versus baseline,"[2]; study 2, oral 500 mg once daily",29%
same,rate of new nonmelanoma skin cancers lowered compared with placebo,"[3]; oral 500 mg twice a day, 12 months",23%
same,"CD4^+ helper T cells and cytotoxic CD8^+ T cells in the tumour microenvironment of melanomas, compared with placebo",[3]; oral NAM group,significant increase
same,systemic adverse effects,"[3]; oral doses 500-1,000 mg/day",without significant systemic adverse effects
same,inhibition of PARP-1,[4],60%
